Measured values: ChEMBL document CHEMBL5046253, “Synthesis and bioevaluation of diaryl urea derivatives as potential antitumor agents for the treatment of human colorectal cancer” (Eur J Med Chem, 2022)
Activity calls are given as the source filed them. The calls are words filed in the database; no cut-off is given here.

Columns and labels:
[1] = biological target: Serine/threonine-protein kinase mTOR (Homo sapiens, UniProt P42345); test: Inhibition of mTOR (unknown origin) using U-Light-4E-BP1 peptide as a substrate in presence of ATP incubated for 45 mins by Lance ultra assay
[2] = biological target: Phosphatidylinositol 4,5-bisphosphate 3-kinase catalytic subunit beta isoform (Homo sapiens, UniProt P42338); test: Inhibition of PI3Kbeta (unknown origin) using PIP2 as substrate in presence of ATP incubated for 60 mins by ADP-glo based luminescence assay
Chain of Phosphatidylinositol 4,5-bisphosphate 3-kinase catalytic subunit beta isoform (P42338 whole entry, canonical isoform): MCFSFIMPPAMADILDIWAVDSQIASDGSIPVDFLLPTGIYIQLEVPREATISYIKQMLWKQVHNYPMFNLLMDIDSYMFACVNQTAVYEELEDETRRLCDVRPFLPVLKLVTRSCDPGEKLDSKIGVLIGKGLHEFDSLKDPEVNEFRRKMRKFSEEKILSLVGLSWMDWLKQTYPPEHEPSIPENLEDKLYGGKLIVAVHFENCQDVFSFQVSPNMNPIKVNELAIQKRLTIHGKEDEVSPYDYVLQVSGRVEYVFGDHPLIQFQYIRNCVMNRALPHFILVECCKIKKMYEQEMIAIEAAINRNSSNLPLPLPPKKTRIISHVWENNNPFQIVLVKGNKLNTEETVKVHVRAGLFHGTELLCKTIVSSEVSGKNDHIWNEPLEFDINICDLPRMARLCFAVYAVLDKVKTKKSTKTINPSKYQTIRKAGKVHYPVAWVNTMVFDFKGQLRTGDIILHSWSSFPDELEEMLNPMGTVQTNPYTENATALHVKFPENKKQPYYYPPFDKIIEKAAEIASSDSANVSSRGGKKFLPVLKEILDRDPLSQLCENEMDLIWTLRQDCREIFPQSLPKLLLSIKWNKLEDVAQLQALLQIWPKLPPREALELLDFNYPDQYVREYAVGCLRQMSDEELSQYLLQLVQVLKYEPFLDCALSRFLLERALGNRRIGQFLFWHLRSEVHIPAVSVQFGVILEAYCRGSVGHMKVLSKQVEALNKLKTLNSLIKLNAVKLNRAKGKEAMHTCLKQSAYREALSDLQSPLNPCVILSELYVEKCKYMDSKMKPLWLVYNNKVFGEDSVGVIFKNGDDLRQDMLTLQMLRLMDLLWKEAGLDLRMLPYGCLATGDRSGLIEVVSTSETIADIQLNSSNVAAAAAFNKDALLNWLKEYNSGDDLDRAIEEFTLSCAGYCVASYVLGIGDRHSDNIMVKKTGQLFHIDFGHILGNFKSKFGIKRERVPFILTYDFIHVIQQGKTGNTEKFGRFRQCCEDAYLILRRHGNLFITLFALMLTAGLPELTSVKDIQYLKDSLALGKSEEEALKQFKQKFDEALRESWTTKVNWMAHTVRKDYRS

[3] = biological target: Phosphatidylinositol 4,5-bisphosphate 3-kinase catalytic subunit gamma isoform (Homo sapiens, UniProt P48736); test: Inhibition of PI3Kgamma (unknown origin) using PIP2 as substrate in presence of ATP incubated for 60 mins by ADP-glo based luminescence assay
Chain of Phosphatidylinositol 4,5-bisphosphate 3-kinase catalytic subunit gamma isoform (P48736 whole entry, canonical isoform): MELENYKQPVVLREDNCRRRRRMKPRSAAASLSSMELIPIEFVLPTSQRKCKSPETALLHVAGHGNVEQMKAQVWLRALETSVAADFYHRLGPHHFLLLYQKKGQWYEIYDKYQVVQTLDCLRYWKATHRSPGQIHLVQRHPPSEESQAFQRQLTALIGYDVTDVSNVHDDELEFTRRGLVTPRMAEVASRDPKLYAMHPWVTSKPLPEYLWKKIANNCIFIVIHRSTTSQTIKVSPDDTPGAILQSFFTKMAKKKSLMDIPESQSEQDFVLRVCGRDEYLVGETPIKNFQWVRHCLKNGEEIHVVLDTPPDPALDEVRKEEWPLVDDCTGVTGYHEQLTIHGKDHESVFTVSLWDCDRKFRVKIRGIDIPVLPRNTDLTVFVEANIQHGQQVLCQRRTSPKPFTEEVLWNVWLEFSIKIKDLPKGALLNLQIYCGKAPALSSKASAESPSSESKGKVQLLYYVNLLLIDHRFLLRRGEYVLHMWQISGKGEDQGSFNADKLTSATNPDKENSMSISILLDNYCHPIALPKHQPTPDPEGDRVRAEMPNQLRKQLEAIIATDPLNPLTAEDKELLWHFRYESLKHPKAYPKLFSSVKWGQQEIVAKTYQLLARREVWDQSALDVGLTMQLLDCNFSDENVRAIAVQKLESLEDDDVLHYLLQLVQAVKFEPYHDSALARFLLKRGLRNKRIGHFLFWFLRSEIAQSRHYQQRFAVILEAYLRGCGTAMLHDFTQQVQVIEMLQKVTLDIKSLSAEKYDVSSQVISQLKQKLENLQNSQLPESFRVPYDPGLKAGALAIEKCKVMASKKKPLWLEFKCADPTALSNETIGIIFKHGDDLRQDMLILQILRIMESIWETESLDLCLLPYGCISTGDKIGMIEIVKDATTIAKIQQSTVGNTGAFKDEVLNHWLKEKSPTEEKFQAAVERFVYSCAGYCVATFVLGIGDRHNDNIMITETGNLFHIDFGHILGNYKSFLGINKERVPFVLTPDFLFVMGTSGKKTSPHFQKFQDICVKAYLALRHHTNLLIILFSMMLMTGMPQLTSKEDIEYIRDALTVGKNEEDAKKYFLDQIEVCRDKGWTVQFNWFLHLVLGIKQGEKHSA

[4] = tested on: MDA-MB-231; test: Antiproliferative activity against human MDA-MB-231 cells assessed as reduction in cell viability incubated for 48 hrs by MTT assay; assay type: functional, cell-based; conditions: MDA-MB-231, 48 h
[5] = tested on: HeLa; test: Antiproliferative activity against human HeLa cells assessed as reduction in cell viability incubated for 48 hrs by MTT assay; assay type: functional, cell-based
[6] = tested on: CNE-2; test: Antiproliferative activity against human CNE-2 cells assessed as reduction in cell viability incubated for 48 hrs by MTT assay; assay type: functional, cell-based; conditions: CNE-2, 48 h
[7] = tested on: MCF7; test: Antiproliferative activity against human MCF7 cells assessed as reduction in cell viability incubated for 48 hrs by MTT assay; assay type: functional, cell-based; conditions: MCF7, 48 h
[8] = tested on: HepG2; test: Antiproliferative activity against human HepG2 cells assessed as reduction in cell viability incubated for 48 hrs by MTT assay; assay type: functional, cell-based; conditions: HepG2, 48 h
[9] = Selectivity index, ratio of IC50 for antiproliferative activity against human L02 cells to IC50 for antiproliferative activity against human HepG2 cells; assay type: toxicity, cell-based; conditions: L02 cells versus HepG2 cells, read-out: Ratio IC50
[10] = tested on: A-431; test: Antiproliferative activity against human A431 cells harboring wild type EGFR mutant assessed as reduction in cell viability incubated for 72 hrs by celltiter-glo assay; assay type: functional, cell-based; conditions: A-431, 72 h
[11] = tested on: NCI-H1975; test: Antiproliferative activity against human NCI-H1975 cells harboring EGFR L858R/T790M double mutant assessed as reduction in cell viability incubated for 72 hrs by celltiter-glo assay; assay type: functional, cell-based; conditions: NCI-H1975, 72 h
[12] = tested on: HCT-116; test: Inhibition of AKT phosphorylation at S473 residue in human HCT-116 cells at 10 uM after 24 hrs by Western blot analysis; assay type: cell-based
[13] = tested on: HCT-116; test: Inhibition of cell migration in human HCT-116 cells at 1.5 uM measured after 24 hrs by wound healing assay (reference value: 31.16 %); assay type: functional
[14] = tested on: HCT-116; test: Inhibition of cell migration in human HCT-116 cells at 3 uM measured after 24 hrs by wound healing assay (reference value: 31.16 %); assay type: functional
[15] = tested on: HCT-116; test: Inhibition of cell migration in human HCT-116 cells at 6 uM measured after 24 hrs by wound healing assay (reference value: 31.16 %); assay type: functional
[16] = tested on: HCT-116; test: Induction of cell cycle arrest in human HCT-116 cells assessed as increase in accumulation at G2/M phase at 1.5 to 6 uM after 24 hrs by propidium iodide staining based flow cytometric analysis (reference value: 19.1 %); assay type: functional; conditions: dose 1.5-6 µM
[17] = tested on: HCT-116; test: Induction of apoptosis in human HCT-116 cells assessed as viable cells at 2.5 uM incubated for 24 hrs by annexin V FITC/propidium iodide staining based flow cytometry (reference value: 81.2 %); assay type: functional; conditions: read-out: Activity
[18] = tested on: HCT-116; test: Induction of apoptosis in human HCT-116 cells assessed as early apoptotic cells at 2.5 uM incubated for 24 hrs by annexin V FITC/propidium iodide staining based flow cytometry (reference value: 11.1 %); assay type: functional
[19] = tested on: HCT-116; test: Induction of apoptosis in human HCT-116 cells assessed as late apoptotic cells at 2.5 uM incubated for 24 hrs by annexin V FITC/propidium iodide staining based flow cytometry (reference value: 6.8 %); assay type: functional
[20] = tested on: HCT-116; test: Induction of apoptosis in human HCT-116 cells assessed as viable cells at 5 uM incubated for 24 hrs by annexin V FITC/propidium iodide staining based flow cytometry (reference value: 81.2 %); assay type: functional; conditions: read-out: Activity
[21] = tested on: HCT-116; test: Induction of apoptosis in human HCT-116 cells assessed as late apoptotic cells at 5 uM incubated for 24 hrs by annexin V FITC/propidium iodide staining based flow cytometry (reference value: 6.8 %); assay type: functional
[22] = tested on: HCT-116; test: Induction of apoptosis in human HCT-116 cells assessed as early apoptotic cells at 10 uM incubated for 24 hrs by annexin V FITC/propidium iodide staining based flow cytometry (reference value: 11.1 %); assay type: functional
[23] = Stability of the compound in simulated gastrointestinal fluid; assay type: ADME
[24] = Metabolic stability in Sprague-Dawley rat liver microsome; assay type: ADME; conditions: microsomes
[25] = AUC (0 to 72 hrs) in Sprague-Dawley rat at 20 mg/kg, iv by LC-MS/MS analysis; assay type: ADME, organism-based; parameters: time < 72 hr, route intravenous, dose 20 mg/kg; conditions: in vivo
[26] = AUC (0 to infinity) in Sprague-Dawley rat at 20 mg/kg, iv by LC-MS/MS analysis; assay type: ADME, organism-based; parameters: route intravenous, time infinity, dose 20 mg/kg; conditions: in vivo
[27] = Tmax in Sprague-Dawley rat at 20 mg/kg, iv by LC-MS/MS analysis; assay type: ADME, organism-based; conditions: in vivo
[28] = Volume of distribution at steady state in Sprague-Dawley rat at 20 mg/kg, iv by LC-MS/MS analysis; assay type: ADME, organism-based; conditions: in vivo
[29] = biological target: Cytochrome P450 2C19 (Homo sapiens, UniProt P33261); test: Inhibition of CYP2C19 (unknown origin); assay type: ADME
Chain of Cytochrome P450 2C19 (P33261 whole entry): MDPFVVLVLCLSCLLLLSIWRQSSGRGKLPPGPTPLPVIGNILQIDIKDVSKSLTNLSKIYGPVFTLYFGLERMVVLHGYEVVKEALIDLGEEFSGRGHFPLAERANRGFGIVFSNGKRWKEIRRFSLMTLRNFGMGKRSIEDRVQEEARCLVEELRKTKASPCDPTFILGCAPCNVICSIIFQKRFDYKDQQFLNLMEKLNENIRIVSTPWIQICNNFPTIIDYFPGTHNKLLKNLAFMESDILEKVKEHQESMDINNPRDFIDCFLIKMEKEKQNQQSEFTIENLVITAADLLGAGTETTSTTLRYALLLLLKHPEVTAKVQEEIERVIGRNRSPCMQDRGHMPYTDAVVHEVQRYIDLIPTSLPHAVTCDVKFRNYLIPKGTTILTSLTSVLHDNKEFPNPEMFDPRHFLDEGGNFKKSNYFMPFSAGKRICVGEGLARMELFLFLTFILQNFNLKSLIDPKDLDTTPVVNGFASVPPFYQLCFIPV

[30] = biological target: Cytochrome P450 2D6 (Homo sapiens, UniProt P10635); test: Inhibition of CYP2D6 (unknown origin); assay type: ADME
Chain of Cytochrome P450 2D6 (P10635 whole entry): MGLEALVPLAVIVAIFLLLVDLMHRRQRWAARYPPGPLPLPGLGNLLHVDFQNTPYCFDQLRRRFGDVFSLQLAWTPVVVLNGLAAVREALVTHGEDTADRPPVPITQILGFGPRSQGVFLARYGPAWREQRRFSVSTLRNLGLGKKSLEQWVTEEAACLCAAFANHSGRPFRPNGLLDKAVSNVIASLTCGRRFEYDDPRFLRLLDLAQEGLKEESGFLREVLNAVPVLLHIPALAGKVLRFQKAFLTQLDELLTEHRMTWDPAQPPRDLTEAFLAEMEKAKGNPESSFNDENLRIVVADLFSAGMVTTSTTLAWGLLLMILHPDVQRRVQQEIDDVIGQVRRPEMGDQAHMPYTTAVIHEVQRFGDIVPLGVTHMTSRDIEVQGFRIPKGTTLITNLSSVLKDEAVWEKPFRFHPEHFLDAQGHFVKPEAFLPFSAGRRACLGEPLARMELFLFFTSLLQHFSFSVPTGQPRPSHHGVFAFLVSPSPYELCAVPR

[31] = biological target: Cytochrome P450 3A4 (Homo sapiens, UniProt P08684); test: Inhibition of CYP3A4 (unknown origin); assay type: ADME
Chain of Cytochrome P450 3A4 (P08684 whole entry): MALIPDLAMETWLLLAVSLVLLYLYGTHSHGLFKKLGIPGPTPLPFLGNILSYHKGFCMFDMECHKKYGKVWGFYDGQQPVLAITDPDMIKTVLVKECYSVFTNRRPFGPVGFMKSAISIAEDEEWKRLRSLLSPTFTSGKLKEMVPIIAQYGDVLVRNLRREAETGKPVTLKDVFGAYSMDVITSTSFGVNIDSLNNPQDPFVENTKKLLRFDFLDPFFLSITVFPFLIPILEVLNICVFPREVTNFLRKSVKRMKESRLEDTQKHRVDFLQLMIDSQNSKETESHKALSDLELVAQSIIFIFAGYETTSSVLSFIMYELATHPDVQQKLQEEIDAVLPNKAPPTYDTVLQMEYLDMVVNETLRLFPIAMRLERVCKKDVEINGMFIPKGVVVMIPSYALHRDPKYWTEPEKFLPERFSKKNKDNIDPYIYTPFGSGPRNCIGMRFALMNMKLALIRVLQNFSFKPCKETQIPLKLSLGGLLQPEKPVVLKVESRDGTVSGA

[32] = biological target: Voltage-gated inwardly rectifying potassium channel KCNH2 (Homo sapiens, UniProt Q12809); test: Inhibition of human ERG transfected in CHO cells by automated patch method; assay type: toxicity, cell-based
Chain of Voltage-gated inwardly rectifying potassium channel KCNH2 (Q12809 whole entry): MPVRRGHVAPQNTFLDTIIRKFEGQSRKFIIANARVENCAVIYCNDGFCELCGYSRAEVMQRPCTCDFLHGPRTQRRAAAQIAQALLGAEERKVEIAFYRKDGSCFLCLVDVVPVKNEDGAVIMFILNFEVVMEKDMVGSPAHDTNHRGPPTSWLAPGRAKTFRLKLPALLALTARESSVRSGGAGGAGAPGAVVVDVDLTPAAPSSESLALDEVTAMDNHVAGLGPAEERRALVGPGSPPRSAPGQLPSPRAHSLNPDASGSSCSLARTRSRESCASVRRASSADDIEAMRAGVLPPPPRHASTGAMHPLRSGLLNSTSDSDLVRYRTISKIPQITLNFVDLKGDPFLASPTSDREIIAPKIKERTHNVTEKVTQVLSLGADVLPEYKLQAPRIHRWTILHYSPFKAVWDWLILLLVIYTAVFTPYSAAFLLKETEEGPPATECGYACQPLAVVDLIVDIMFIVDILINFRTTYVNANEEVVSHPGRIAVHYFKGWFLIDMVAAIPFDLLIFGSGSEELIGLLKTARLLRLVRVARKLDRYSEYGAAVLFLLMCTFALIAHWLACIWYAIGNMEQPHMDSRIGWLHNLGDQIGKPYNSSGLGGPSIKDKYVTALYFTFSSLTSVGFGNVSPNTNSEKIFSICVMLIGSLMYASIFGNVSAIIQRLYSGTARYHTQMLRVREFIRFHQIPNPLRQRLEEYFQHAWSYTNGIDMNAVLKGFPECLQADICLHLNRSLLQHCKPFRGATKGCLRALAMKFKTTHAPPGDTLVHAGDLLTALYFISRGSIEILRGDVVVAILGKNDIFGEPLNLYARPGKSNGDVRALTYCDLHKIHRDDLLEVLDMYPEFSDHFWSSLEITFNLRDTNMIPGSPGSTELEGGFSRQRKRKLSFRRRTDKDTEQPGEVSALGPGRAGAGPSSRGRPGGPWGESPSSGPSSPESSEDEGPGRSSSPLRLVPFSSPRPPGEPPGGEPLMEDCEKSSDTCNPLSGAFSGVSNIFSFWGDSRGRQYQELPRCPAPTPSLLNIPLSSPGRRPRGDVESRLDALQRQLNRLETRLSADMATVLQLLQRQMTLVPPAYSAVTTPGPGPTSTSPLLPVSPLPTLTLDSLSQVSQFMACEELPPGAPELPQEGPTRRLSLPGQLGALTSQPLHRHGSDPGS

[33] = tested on: HCT-116; test: Antitumor activity against human HCT-116 cells xenografted in BALB/c nude mouse assessed as tumor size at 20 mg/kg, iv administered for 19 days (reference value: 1264.1+/-95.7 mm3); assay type: functional; conditions: time 19 day
[34] = tested on: HCT-116; test: Antitumor activity against human HCT-116 cells xenografted in BALB/c nude mouse assessed as tumor growth inhibition at 20 mg/kg, iv administered for 19 days; assay type: functional; conditions: HCT-116, iv, 456 h, time 19 day, read-out: TGI
[35] = tested on: Spleen; test: Toxicity in BALB/c mouse assessed as effect on spleen by H and E staining based histological analysis; assay type: tissue-based; conditions: in vivo
[36] = tested on: Heart; test: Toxicity in BALB/c mouse assessed as effect on heart by H and E staining based histological analysis; assay type: tissue-based; conditions: in vivo
[37] = tested on: Lung; test: Toxicity in BALB/c mouse assessed as effect on lungs by H and E staining based histological analysis; assay type: tissue-based; conditions: in vivo
[38] = tested on: Kidney; test: Toxicity in BALB/c mouse assessed as effect on kidney by H and E staining based histological analysis; assay type: tissue-based; conditions: in vivo
[39] = tested on: Mus musculus; test: Hyperglycemic activity in ICR mouse model assessed as effect on blood glucose level at 20 mg/kg, iv by glucometer; assay type: toxicity, organism-based; conditions: in vivo

IC50 [1]: 3.3 nM
IC50 [2]: 4.3 nM
IC50 [3]: 8.7 nM
IC50 [4]: 6.48 µM
IC50 [5]: 13.4 µM
IC50 [7]: 2220 nM
IC50 [8]: 15.1 µM
IC50 [10]: 218 nM
IC50 [11]: 217 nM
Stability [23]: Stable
Stability [24]: Stable
AUC(0-t) at 72 h [25]: 30000 ng·h/mL
AUC(0-inf) [26]: 30600 ng·h/mL
Tmax [27]: 1.8 min
Vdss [28]: 17.9 L/kg
IC50 [29]: > 50 µM
IC50 [30]: > 50 µM
IC50 [31]: > 50 µM
Structure (SMILES): NC(=O)[C@@H]1CCCN1C(=O)c1ccc(NC(=O)Nc2ccc(-c3nc(N4CCOCC4)nc(N4CCOCC4)n3)cc2)cc1
IC50 [6]: 70 nM
selectivity ratio [9]: 6.6
inhibition [12]: Active
inhibition at 1.5 µM [13]: 12.2%
inhibition at 3 µM [14]: 9.72%
inhibition at 6 µM [15]: 6.4%
Activity [16]: 22.2%
viability at 2.5 µM [17]: 58.7%
Activity [18]: 18.5%
Activity [19]: 20.6%
viability at 5 µM [20]: 75.2%
Activity [21]: 9.71%
Activity [22]: 24.9%
IC50 [32]: > 30 µM
Activity [33]: 796.2 mm3
inhibition in vivo at 20 mg/kg [34]: 41.6%
Activity [35]: Non-Toxic
Activity [36]: Non-Toxic
Activity [37]: Non-Toxic
Activity [38]: Non-Toxic
Activity [39]: Non-Toxic
